We go through eight compounds from ChEMBL document CHEMBL1201862, “PubChem BioAssay data set” (2004).

Some test systems named below: HL-60; HOP-62; NCI-H23; NCI-H522; OVCAR-4; RPMI-8226; RXF 393; SF-268; SF-295; SK-MEL-28; SK-MEL-2; SNB-19; SNB-75; SW-620; TK-10; UACC-257; UACC-62; HCT-15; HT-29.
Common to all, as to test: growth of human tumour cells (NCI), 48 h

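Assay format: 96-well plates, 48-hour exposure. The concentration for 50% growth inhibition is given as GI50.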 Active and inactive are the calls of the source. No stated cut-off is given here; in the data, active = GI50 up to about 1.1 µM and inactive = higher.

With `CN(C)c1ccc(/C=c2\sc3nnc(-c4ccco4)n3c2=O)cc1`, the GI50 in the assay with HL-60, in the assay on HOP-62, in the assay on NCI-H23, with NCI-H522, in the assay with OVCAR-4 and with RPMI-8226 was > 100 µM (inactive) throughout. The GI50 in the assay with RXF 393, with SF-268, with SF-295, in the assay with SK-MEL-28, in the assay on SK-MEL-2 and in the assay on SNB-19 was > 100 µM (inactive) each time. Further, the GI50 in the assay with SNB-75 is 31.6 µM (inactive); in the assay with SW-620, > 100 µM (inactive); in the assay on TK-10, > 100 µM (inactive); with UACC-257, 16.7 µM (inactive); in the assay on UACC-62, > 100 µM (inactive).

Turning to `Nc1nc(NCCO)c(N=O)c(=O)[nH]1`, the GI50 in the assay with HCT-15 is greater than 100 µM; with HL-60 it was > 100 µM (inactive); in the assay on HOP-62, > 100 µM (inactive); in the assay on HT-29 it was > 100 µM (inactive); with NCI-H522, > 100 µM (inactive); with OVCAR-4, > 100 µM (inactive). In addition, the GI50 in the assay on RPMI-8226, in the assay with RXF 393, in the assay on SF-268, in the assay on SF-295, with SK-MEL-28 and in the assay with SK-MEL-2 was > 100 µM (inactive) throughout. The GI50 with SNB-75, in the assay with SW-620, with TK-10, in the assay with UACC-257 and in the assay on UACC-62 was > 100 µM (inactive) each time.

In the case of `O=C(Cc1c(C(=O)Nc2ccccc2)sc(C(=O)Nc2ccccc2)c1CC(=O)Nc1ccccc1)Nc1ccccc1`, the GI50 with HL-60, with HOP-62, in the assay on HT-29, in the assay on NCI-H23, in the assay with NCI-H522 and in the assay on OVCAR-4 was > 100 µM (inactive) in each case. The GI50 with RPMI-8226 is > 100 µM (inactive); in the assay with RXF 393 it was > 100 µM (inactive); with SF-268, 0.446 µM (active); in the assay on SF-295 it was > 100 µM (inactive); with SK-MEL-28, 0.719 µM (active); in the assay on SNB-19 it was > 100 µM (inactive). In addition, the GI50 in the assay on SNB-75, in the assay on SW-620, in the assay on TK-10, in the assay on UACC-257 and in the assay with UACC-62 was > 100 µM (inactive) each time.

Take `NC(=O)NNC(=O)NC12CC3CC(CC(C3)C1)C2`: the GI50 is greater than 100 µM with HCT-15; > 100 µM (inactive) in the assay with HL-60; > 100 µM (inactive) in the assay with HOP-62; > 100 µM (inactive) in the assay on HT-29; > 100 µM (inactive) with NCI-H23; > 100 µM (inactive) with NCI-H522. The GI50 with OVCAR-4, in the assay on RXF 393, in the assay with SF-268, in the assay with SF-295, with SK-MEL-28 and in the assay with SK-MEL-2 was > 100 µM (inactive) throughout. Besides, the GI50 with SNB-19, in the assay on SNB-75, with SW-620, in the assay with TK-10, with UACC-257 and in the assay with UACC-62 was > 100 µM (inactive) each time.

With `COc1ccc2c(c1)C(O)(C(F)(F)F)c1cc(C(=O)C(F)(F)F)c3ccccc3c1N2` (configuration not stated), the GI50 with HCT-15 was 7.35 µM; in the assay on HL-60 it was 14.7 µM (inactive); with HT-29 it was 7.73 µM (inactive); in the assay with NCI-H23, 12.4 µM (inactive); in the assay on NCI-H522 it was 7.74 µM (inactive); in the assay on OVCAR-4, 10.5 µM (inactive). Also, the GI50 in the assay with RXF 393 is 11.5 µM (inactive); in the assay with SF-268, 10.2 µM (inactive); with SF-295 it was 13.2 µM (inactive); in the assay with SK-MEL-28 it was 14.6 µM (inactive); with SK-MEL-2, 12.2 µM (inactive); with SNB-19, 16 µM (inactive). In addition, the GI50 was 16.9 µM (inactive) in the assay with SNB-75; 13.9 µM (inactive) in the assay with SW-620; 13.5 µM (inactive) in the assay with TK-10; 13.5 µM (inactive) with UACC-257; 4.46 µM (inactive) with UACC-62.

As for `Clc1cc(-c2ccccc2)nc2ccccc12`, the GI50 in the assay with HCT-15 was 16 µM; with HL-60, 22.5 µM (inactive); in the assay with HOP-62 it was > 100 µM (inactive); in the assay with HT-29 it was 32.1 µM (inactive); with NCI-H23, 51.6 µM (inactive); in the assay on NCI-H522, 17 µM (inactive). Besides, the GI50 is 20.7 µM (inactive) in the assay with OVCAR-4; 23.7 µM (inactive) in the assay on RPMI-8226; 31.7 µM (inactive) with RXF 393; 44.9 µM (inactive) in the assay on SF-268; 38.4 µM (inactive) in the assay on SF-295; 57.5 µM (inactive) in the assay with SK-MEL-28. Further, the GI50 with SK-MEL-2 was 19.1 µM (inactive); with SNB-19, 88.7 µM (inactive); with SNB-75, 28.6 µM (inactive); in the assay on SW-620, 43.6 µM (inactive); in the assay on TK-10, 34 µM (inactive); in the assay with UACC-257, 34.8 µM (inactive). Besides, in the assay on UACC-62, the GI50 was 42.6 µM (inactive).

Take `O=C1Cc2c([nH]c3ccccc23)-c2cc(Br)ccc2N1`: the GI50 with HCT-15 was greater than 100 µM; with HL-60, > 100 µM (inactive); in the assay on HOP-62, > 100 µM (inactive); in the assay with HT-29, > 100 µM (inactive); with NCI-H23 it was > 100 µM (inactive); in the assay with NCI-H522, > 100 µM (inactive). For the same compound, the GI50 in the assay with OVCAR-4, in the assay on RPMI-8226, in the assay on RXF 393, in the assay with SF-268, with SF-295 and in the assay with SK-MEL-28 was > 100 µM (inactive) throughout. In addition, the GI50 in the assay on SK-MEL-2, in the assay on SNB-19, with SNB-75, in the assay on SW-620, in the assay with TK-10 and in the assay on UACC-257 was > 100 µM (inactive) throughout.

As to `COc1ccc2[nH]c3c(cnn4cnnc34)c2c1`, the GI50 is greater than 100 µM in the assay on HCT-15; > 100 µM (inactive) in the assay with HL-60; > 100 µM (inactive) with HOP-62; > 100 µM (inactive) in the assay with HT-29; > 100 µM (inactive) with NCI-H23; > 100 µM (inactive) in the assay on NCI-H522. In addition, the GI50 in the assay on OVCAR-4, in the assay with RPMI-8226, in the assay on RXF 393, with SF-268, with SF-295 and with SK-MEL-28 was > 100 µM (inactive) in each case. Besides, the GI50 in the assay with SK-MEL-2, in the assay with SNB-19, with SNB-75, in the assay on SW-620, in the assay on TK-10 and in the assay with UACC-257 was > 100 µM (inactive) each time. In addition, the GI50 in the assay on UACC-62 was > 100 µM (inactive).
